Measured values reported in patent publication US20160256504A1, “[…] COMPOSITION CONTAINING […] MUSHROOM [[…] EDODES] […] CULTURE AND NATTO BACTERIA [BACILLUS SUBTILIS NATTO] CULTURE” (HK Biotech Co., LTD., priority 2014, published 2016).

Legend:
[1] = tested on: plasma plasminogen activator inhibitor-1 (PAI-1); assay: Plasma PAI-1 content in SHR after 4-week treatment; assay type: in vivo, rat
[2] = tested on: blood homocysteine; conditions: rats, hyperhomocysteinemia induced by guanidinoacetic acid injection, EA injected; cited from earlier work
[3] = tested on: NOS; assay: NOS activity in NAME-induced hypertensive rat model; assay type: in vivo; conditions: NAME-induced hypertensive rats
Experimental: (§1) The biochemical markers relating to the blood pressure were measured, by collecting blood and organs of the rats used in the experimental examples 1 (non-genetic NAME-induced hypertension) and 3 (4-week-treatments on SHR). […] And from the rats of the experimental example 3, ACE activity and the activity of plasma plasminogen activator inhibitor-1 (PAI-1) of the plasma and the livers were measured. […] The following TABLE 5 is describing NO content and NOS activity of shiitake mushroom mycelium culture and natto bacteria culture mixture in the NAME-induced hypertensive rat model.

[4] = tested on: NO; assay: NO content in NAME-induced hypertensive rat model; assay type: in vivo; conditions: NAME-induced hypertensive rats
Experimental: as §1

C[C@H](CS)C(=O)N1CCC[C@H]1C(=O)O [CP, captopril]
Plasma PAI-1 ([1]; 0 week): 113 pg/mL | Plasma PAI-1 ([1]; 4 weeks): 127 pg/mL

Nc1ncnc2c1ncn2C[C@@H](O)[C@@H](O)C(=O)O [EA, eritadenine]
blood homocysteine [2]: reduced

NNc1nncc2ccccc12 [hydralazine]
NOS Aorta ([3]; 0 week): 0.80 NO pmle/mg protein/min | NOS Aorta ([3]; 4 weeks): 1.08 NO pmle/mg protein/min | NOS Plasma ([3]; 0 week): 6.0 NO umole/L | NOS Plasma ([3]; 4 weeks): 8.5 NO umole/L | NO Lung ([4]; 0 week): 10 nM/ml | NO Lung ([4]; 4 weeks): 7 nM/ml | NO Plasma ([4]; 0 week): 21 nM/ml | NO Plasma ([4]; 4 weeks): 20 nM/ml
